# In article PMC8591507, “Progesterone receptor membrane component 1 (PGRMC1) binds and stabilizes cytochromes P450 through a heme-independent mechanism” (The Journal of Biological Chemistry, 2021):
# How the values were obtained:
# [1] = biological target: T1, PGRMC1 (progesterone receptor membrane component 1) (Homo sapiens, UniProt O00264); assay: spectrophotometric hemin titration (A394), Hill fit; format: binding
# T1 construct: recombinant truncated human PGRMC1 (aa 43–195), His tag removed by thrombin
# [2] = biological target: T2, Y113F PGRMC1 (progesterone receptor membrane component 1) (Homo sapiens, UniProt O00264, Y113F); assay: as above; format: binding
# T2 construct: recombinant truncated human PGRMC1 (aa 43–195), His tag removed by thrombin
# T2 sequence (O00264 43-195 Y113F): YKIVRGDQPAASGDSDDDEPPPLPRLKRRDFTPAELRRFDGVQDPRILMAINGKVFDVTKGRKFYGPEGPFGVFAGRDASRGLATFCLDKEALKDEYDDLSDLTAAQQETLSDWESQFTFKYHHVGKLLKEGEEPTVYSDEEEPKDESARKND
# T1 sequence (O00264 43-195): as the sequence (O00264 43-195 Y113F) above, with F71Y counted along it
structure (smiles),measurement,setting,value
C=CC1=C(C)C2=Cc3c(C=C)c(C)c4[n]3[Fe]([Cl])[n]3c(c(C)c(CCC(=O)O)c3=CC3=NC(=C4)C(C)=C3CCC(=O)O)=CC1=N2 [hemin],Kd,[1],4.9 ± 0.33 µM
same,Kd,[2],4.7 ± 0.42 µM
